Reference: the supplement of paper PMC10307832

How the values were obtained:
Test in all cases: relative viability (nuclei count vs DMSO), 5 days (fraction); higher = more cells survive
Cediranib + Lapatinib = compound: COc1cc2c(Oc3ccc4[nH]c(C)cc4c3F)ncnc2cc1OCCCN1CCCC1 [Cediranib] + CS(=O)(=O)CCNCc1ccc(-c2ccc3ncnc(Nc4ccc(OCc5cccc(F)c5)c(Cl)c4)c3c2)o1 [Lapatinib] (partner 2 µM)
Outline: (§1)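 Relative viability equals treated-well nuclei counts divided by vehicle-well nuclei counts. Counts came from 4× images of lung cancer cell lines grown in 1536-well plates for 5 days after pin-tool dosing on the day after seeding. Dosing used one drug alone or a fixed anchor-drug dose plus five library-drug doses (not always all listed) in √10 steps, and values are medians of duplicate plates.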

Cediranib + Olaparib = compound: COc1cc2c(Oc3ccc4[nH]c(C)cc4c3F)ncnc2cc1OCCCN1CCCC1 [Cediranib] + O=C(c1cc(Cc2n[nH]c(=O)c3ccccc23)ccc1F)N1CCN(C(=O)C2CC2)CC1 [Olaparib] (partner 8 µM)
Outline: as §1

Decitabine + Lapatinib = compound: Nc1ncn([C@H]2C[C@H](O)[C@@H](CO)O2)c(=O)n1 [Decitabine] + CS(=O)(=O)CCNCc1ccc(-c2ccc3ncnc(Nc4ccc(OCc5cccc(F)c5)c(Cl)c4)c3c2)o1 [Lapatinib] (partner 2 µM)
Outline: as §1

[1] = compound: O=C(C[C@H]1NCCC[C@@H]1O)Cn1cnc2cc(Br)c(Cl)cc2c1=O (racemic) [Halofuginone] + N=C(N)NC(=N)NCCc1ccccc1 [Phenformin] (partner 250 µM)
Outline: as §1

Cell Line	relative viability (Cediranib + Lapatinib; first compound 0.1265 µM)	relative viability (Cediranib + Lapatinib; first compound 0.4 µM)	relative viability (Cediranib + Lapatinib; first compound 1.265 µM)	relative viability (Cediranib + Lapatinib; first compound 4 µM)	relative viability (Cediranib + Olaparib; first compound 0.04 µM)	relative viability (Cediranib + Olaparib; first compound 0.1265 µM)	relative viability (Cediranib + Olaparib; first compound 0.4 µM)	relative viability (Cediranib + Olaparib; first compound 1.265 µM)	relative viability (Cediranib + Olaparib; first compound 4 µM)	relative viability (Decitabine + Lapatinib; first compound 0.04 µM)	relative viability (Decitabine + Lapatinib; first compound 0.1265 µM)	relative viability (Decitabine + Lapatinib; first compound 0.4 µM)	relative viability (Decitabine + Lapatinib; first compound 1.265 µM)	relative viability (Decitabine + Lapatinib; first compound 4 µM)	relative viability ([1]; first compound 0.001 µM)	relative viability ([1]; first compound 0.003162 µM)	relative viability ([1]; first compound 0.01 µM)	relative viability ([1]; first compound 0.03162 µM)	relative viability ([1]; first compound 0.1 µM)	relative viability (Cediranib + Lapatinib; first compound 0.04 µM)
COR-L 105	0.304	0.361	0.339	0.337	0.737	0.657	0.715	0.707	0.687	0.345	0.317	0.328	0.326	0.28	0.492	0.467	0.488	0.516	0.381	–
LCLC-97TM1	–	0.976	1.15	1.01	0.468	–	0.384	0.301	0.504	0.576	0.335	0.173	0.169	0.126	0.4	0.408	0.351	0.417	0.332	1.03
NCI-H520	–	0.605	0.759	0.785	0.365	0.353	0.355	0.298	0.3	0.798	0.965	0.499	0.359	0.267	0.606	0.78	0.569	0.582	0.193	0.977
NCI-H1993	0.675	0.815	0.755	0.887	–	0.933	0.847	1.1	1.09	0.837	0.774	0.8	0.731	0.725	0.436	0.554	0.448	0.535	0.577	0.8
NCI-H1437	0.791	0.764	0.842	1.03	0.662	0.614	0.615	0.599	0.627	0.505	0.582	0.274	0.235	0.221	0.329	0.308	0.3	0.297	0.258	0.87
LC-2-ad	0.656	0.94	1.02	0.731	0.737	0.689	0.664	0.732	0.839	0.676	0.775	0.317	0.245	0.37	0.694	0.581	0.536	0.677	0.466	1.07
HARA	0.994	0.7	0.708	0.703	0.626	1.22	0.675	1.01	0.692	0.737	0.935	0.443	0.432	0.296	0.486	0.465	0.487	0.48	0.363	0.762
NCI-H650	0.444	0.913	0.8	0.938	0.331	0.282	0.423	0.405	0.583	0.786	0.532	0.339	0.356	0.292	0.507	0.501	0.437	0.424	0.374	0.956
NCI-H1975	1.26	0.801	0.905	0.835	0.841	0.752	0.768	0.773	0.773	0.538	0.456	0.364	0.327	0.29	0.403	0.397	0.422	0.356	0.365	1.06
NCI-H2085	0.791	0.839	0.725	0.774	0.737	0.729	0.745	0.8	0.746	0.628	0.646	0.446	0.494	0.445	0.685	0.703	0.686	0.705	0.574	0.846
NCI-H3122	0.985	1.01	0.98	1.05	0.702	–	0.577	0.601	0.651	1.05	1.03	1.02	0.816	0.783	0.379	0.37	0.356	0.355	0.383	1.05
NCI-H522	–	–	–	–	0.685	0.631	0.678	0.69	0.646	–	–	–	–	–	0.73	0.653	0.649	0.648	0.657	–
NCI-H441	–	–	–	–	0.564	0.605	0.597	0.702	0.575	–	–	–	–	–	0.976	1.05	0.87	0.839	0.564	–
NCI-H1563	0.66	0.935	0.822	0.78	–	–	–	–	–	0.922	1.02	0.87	1.07	0.8	0.659	0.638	0.615	0.602	0.549	0.89
NCI-H1703	1.07	0.361	0.354	0.341	0.389	0.388	0.173	0.163	0.243	0.698	0.652	0.484	0.36	0.274	–	–	–	–	–	1.36
LCLC-103H	–	–	–	–	0.797	0.836	0.739	0.749	0.658	–	–	–	–	–	0.35	0.341	0.323	0.326	0.309	–
NCI-H1648	–	–	–	–	0.519	0.824	0.901	1.2	1.31	–	–	–	–	–	–	–	–	–	–	–
EBC-1	0.206	0.213	0.226	0.202	0.715	0.744	0.668	0.786	0.88	0.2	0.163	0.162	0.195	0.152	–	–	–	–	–	0.252
NCI-H1299	0.958	0.995	0.933	0.983	0.999	0.96	0.92	0.949	0.97	0.972	0.989	0.953	0.918	0.855	–	–	–	–	–	1.02
IA-LM	0.938	0.673	0.732	0.794	0.993	0.848	0.824	0.867	1.02	0.503	0.306	0.212	0.169	0.178	–	–	–	–	–	0.933
